# Columns and labels:
# [1] = biological target: T1, Tyrosine-protein kinase Tec (Homo sapiens) (UniProt P42680); experiment: Selectivity interaction (KinomeScan (DiscoverX)) EUB0001868a TEC; conditions: at 1 µM
# T1 sequence (whole entry): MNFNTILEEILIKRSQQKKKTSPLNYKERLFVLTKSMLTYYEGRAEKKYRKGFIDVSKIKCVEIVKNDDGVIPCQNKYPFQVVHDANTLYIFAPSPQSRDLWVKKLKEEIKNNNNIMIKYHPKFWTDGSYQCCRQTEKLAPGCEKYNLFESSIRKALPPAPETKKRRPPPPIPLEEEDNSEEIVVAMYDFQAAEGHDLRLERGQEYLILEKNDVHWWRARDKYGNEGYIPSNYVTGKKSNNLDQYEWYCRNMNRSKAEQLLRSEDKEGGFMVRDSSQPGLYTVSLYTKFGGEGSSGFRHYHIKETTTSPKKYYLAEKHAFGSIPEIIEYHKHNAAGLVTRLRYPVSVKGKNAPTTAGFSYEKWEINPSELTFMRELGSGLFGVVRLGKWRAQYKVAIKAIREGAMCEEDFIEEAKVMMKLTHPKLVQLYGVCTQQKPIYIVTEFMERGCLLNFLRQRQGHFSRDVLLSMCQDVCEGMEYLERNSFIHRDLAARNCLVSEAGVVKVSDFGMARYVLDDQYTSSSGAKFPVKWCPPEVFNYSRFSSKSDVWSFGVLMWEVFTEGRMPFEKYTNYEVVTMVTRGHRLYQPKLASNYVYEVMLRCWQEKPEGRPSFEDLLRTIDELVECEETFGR
# [2] = biological target: T2, MAP/microtubule affinity-regulating kinase 4 (Homo sapiens) (UniProt Q96L34); conditions: at 10 µM
# T2 sequence (whole entry): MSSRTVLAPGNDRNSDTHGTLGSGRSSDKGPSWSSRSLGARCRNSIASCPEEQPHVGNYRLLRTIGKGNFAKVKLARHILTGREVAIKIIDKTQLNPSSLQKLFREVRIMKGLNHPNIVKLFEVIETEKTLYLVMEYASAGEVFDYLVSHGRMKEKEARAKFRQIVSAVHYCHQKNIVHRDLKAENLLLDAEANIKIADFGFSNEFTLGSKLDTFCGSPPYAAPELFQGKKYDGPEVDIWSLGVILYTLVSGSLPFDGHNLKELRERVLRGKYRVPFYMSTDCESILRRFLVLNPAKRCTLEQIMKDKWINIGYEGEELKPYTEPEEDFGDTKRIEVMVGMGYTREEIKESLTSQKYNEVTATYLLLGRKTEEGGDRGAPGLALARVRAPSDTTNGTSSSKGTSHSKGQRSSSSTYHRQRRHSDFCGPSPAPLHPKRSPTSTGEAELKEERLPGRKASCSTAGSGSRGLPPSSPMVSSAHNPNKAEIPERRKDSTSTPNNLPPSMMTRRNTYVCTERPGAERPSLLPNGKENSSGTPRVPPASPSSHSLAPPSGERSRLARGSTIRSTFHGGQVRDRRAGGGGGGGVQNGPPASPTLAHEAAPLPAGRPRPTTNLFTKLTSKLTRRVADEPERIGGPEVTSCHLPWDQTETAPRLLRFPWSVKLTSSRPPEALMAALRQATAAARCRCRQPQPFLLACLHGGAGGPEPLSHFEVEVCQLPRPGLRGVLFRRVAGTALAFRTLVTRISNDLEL
# [3] = biological target: Ephrin type-A receptor 7 (Homo sapiens) (UniProt Q15375); experiment: Selectivity interaction (ActivX KiNativ screen (kinase selectivity in THP-1 cell lysates)) EUB0000639a EPHA7; type: subcellular; conditions: lysate
# Chain of Ephrin type-A receptor 7 (Homo sapiens) (Q15375 28-998 limits assumed): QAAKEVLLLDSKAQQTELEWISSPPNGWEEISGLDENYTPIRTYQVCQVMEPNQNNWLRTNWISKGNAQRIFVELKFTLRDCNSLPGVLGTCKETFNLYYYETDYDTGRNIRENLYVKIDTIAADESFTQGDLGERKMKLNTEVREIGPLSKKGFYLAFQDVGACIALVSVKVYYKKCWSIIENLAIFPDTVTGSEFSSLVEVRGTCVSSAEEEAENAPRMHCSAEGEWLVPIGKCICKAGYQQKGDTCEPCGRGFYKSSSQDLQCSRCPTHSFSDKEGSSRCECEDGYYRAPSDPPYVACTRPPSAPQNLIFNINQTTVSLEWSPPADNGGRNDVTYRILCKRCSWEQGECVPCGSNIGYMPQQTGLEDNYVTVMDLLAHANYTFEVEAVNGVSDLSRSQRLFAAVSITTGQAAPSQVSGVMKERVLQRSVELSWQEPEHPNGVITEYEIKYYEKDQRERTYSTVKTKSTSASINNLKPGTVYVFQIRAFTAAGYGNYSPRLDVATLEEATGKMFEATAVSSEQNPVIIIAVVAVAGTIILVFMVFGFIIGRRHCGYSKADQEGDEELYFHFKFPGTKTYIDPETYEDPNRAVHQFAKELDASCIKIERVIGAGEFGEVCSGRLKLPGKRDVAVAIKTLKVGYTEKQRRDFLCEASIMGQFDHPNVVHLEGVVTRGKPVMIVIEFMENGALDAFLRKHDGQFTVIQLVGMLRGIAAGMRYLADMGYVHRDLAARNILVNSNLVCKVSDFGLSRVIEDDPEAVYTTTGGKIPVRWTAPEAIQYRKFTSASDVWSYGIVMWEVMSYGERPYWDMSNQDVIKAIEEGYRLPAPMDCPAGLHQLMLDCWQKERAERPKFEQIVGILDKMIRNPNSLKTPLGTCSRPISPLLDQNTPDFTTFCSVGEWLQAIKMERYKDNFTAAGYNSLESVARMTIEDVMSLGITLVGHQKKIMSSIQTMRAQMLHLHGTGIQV
# [4] = biological target: Calcium/calmodulin-dependent protein kinase type 1B (Homo sapiens) (UniProt Q6P2M8); experiment: Selectivity interaction (KinomeScan (DiscoverX)) EUB0001049a PNCK; conditions: at 1 µM
# Chain of Calcium/calmodulin-dependent protein kinase type 1B (Homo sapiens) (Q6P2M8 whole entry): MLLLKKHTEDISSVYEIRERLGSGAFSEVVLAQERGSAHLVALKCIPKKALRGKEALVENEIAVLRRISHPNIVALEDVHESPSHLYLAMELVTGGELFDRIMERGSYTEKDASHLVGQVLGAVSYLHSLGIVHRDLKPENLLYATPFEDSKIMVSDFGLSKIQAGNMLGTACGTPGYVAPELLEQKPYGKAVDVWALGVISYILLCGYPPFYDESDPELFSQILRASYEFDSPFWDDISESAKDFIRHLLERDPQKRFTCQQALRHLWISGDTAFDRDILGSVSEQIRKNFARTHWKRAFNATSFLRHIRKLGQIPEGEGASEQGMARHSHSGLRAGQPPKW
# [5] = biological target: BMP-2-inducible protein kinase (Homo sapiens) (UniProt Q9NSY1); experiment: Selectivity interaction (Kinase panel (DSF assay)) EUB0001558a BMP2K
# Chain of BMP-2-inducible protein kinase (Homo sapiens) (Q9NSY1 whole entry, looked up): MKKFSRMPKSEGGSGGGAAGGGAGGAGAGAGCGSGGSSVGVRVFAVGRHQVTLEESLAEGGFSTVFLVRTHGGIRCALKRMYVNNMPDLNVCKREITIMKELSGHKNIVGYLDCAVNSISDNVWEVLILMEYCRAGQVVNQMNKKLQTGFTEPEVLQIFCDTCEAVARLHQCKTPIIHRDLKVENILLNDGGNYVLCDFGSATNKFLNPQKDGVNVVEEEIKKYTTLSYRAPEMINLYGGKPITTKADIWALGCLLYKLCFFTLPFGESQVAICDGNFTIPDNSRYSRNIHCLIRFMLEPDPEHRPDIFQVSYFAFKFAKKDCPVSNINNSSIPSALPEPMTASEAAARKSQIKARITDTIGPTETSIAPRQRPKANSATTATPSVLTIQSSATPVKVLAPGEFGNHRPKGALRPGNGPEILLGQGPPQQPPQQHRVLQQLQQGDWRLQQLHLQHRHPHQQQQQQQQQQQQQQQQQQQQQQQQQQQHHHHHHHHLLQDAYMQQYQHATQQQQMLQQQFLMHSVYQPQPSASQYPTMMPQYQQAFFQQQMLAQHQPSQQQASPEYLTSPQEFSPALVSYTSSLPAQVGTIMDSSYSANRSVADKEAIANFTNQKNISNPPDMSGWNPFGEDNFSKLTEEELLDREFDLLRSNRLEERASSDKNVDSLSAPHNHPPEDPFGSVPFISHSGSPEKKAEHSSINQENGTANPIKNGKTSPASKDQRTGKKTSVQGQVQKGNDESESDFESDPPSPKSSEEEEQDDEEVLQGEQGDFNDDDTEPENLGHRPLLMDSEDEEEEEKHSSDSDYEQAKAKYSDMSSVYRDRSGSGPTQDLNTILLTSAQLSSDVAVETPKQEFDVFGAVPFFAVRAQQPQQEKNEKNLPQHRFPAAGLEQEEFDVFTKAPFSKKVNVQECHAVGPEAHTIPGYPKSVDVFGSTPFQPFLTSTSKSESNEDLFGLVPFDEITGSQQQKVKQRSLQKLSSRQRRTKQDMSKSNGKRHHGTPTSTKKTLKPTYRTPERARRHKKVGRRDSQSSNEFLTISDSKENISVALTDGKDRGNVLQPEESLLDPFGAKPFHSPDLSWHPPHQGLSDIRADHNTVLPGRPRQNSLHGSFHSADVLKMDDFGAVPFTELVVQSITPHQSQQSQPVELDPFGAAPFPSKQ
# [6] = biological target: T3, Histone-arginine methyltransferase CARM1 (Homo sapiens) (UniProt Q86X55); conditions: U-266, at 3 µM
# T3 sequence (whole entry): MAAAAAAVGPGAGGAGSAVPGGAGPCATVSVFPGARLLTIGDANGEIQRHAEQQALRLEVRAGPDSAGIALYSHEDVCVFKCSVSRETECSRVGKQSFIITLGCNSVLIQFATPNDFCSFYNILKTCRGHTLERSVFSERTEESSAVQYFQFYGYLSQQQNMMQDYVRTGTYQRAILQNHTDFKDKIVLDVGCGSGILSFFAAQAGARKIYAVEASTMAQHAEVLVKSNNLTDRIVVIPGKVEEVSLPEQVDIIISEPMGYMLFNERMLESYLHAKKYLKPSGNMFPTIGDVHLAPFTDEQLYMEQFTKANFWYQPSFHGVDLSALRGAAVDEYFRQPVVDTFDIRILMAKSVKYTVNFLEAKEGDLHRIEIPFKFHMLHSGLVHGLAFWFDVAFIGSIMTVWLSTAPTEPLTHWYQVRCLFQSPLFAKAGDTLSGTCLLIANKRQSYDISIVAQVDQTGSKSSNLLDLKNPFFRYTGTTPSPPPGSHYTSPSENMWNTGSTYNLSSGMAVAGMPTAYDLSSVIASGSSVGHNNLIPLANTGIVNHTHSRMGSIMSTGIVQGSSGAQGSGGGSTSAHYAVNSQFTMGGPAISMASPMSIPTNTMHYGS
# [7] = biological target: Ribosomal protein S6 kinase alpha-2 (Homo sapiens) (UniProt Q15349); conditions: at 10 µM
# Chain of Ribosomal protein S6 kinase alpha-2 (Homo sapiens) (Q15349 whole entry): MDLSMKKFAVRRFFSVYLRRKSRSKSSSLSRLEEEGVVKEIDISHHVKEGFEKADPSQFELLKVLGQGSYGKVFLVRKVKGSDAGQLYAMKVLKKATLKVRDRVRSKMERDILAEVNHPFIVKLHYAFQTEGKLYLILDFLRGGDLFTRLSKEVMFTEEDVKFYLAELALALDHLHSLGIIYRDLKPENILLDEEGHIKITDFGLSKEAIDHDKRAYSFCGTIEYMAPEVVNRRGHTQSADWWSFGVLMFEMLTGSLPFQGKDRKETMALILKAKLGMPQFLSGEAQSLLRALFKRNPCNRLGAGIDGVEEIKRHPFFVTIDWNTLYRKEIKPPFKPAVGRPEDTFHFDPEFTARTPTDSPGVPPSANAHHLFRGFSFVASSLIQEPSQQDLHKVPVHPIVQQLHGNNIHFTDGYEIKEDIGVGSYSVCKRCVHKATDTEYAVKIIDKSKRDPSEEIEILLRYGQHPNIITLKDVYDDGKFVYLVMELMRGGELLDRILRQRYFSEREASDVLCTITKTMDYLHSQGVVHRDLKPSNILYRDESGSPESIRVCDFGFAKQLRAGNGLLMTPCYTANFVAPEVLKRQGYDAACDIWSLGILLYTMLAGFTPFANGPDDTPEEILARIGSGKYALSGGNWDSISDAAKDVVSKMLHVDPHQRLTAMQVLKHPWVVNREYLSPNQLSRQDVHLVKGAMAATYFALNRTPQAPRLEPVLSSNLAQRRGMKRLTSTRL
# [8] = biological target: MAP kinase-interacting serine/threonine-protein kinase 2 (Homo sapiens, UniProt Q9HBH9); conditions: at 10 µM
# Chain of MAP kinase-interacting serine/threonine-protein kinase 2 (Q9HBH9 whole entry, looked up): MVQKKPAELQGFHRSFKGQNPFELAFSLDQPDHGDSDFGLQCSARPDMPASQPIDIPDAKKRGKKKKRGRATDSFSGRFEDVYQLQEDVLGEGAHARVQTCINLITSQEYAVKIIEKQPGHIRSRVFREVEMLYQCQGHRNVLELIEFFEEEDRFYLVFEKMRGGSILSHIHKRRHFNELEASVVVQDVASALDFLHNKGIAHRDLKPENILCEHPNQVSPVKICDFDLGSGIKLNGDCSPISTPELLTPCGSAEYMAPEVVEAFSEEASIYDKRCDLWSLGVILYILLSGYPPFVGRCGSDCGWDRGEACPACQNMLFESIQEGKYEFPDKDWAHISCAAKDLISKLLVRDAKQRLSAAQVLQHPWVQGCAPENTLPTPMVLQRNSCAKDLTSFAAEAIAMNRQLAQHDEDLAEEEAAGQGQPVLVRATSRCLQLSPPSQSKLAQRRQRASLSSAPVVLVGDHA
# [9] = biological target: T4, Dual specificity mitogen-activated protein kinase kinase 6 (Homo sapiens) (UniProt P52564); experiment: Selectivity interaction (KinomeScan (DiscoverX)) EUB0000618a MAP2K6; conditions: at 10 µM
# T4 sequence (whole entry): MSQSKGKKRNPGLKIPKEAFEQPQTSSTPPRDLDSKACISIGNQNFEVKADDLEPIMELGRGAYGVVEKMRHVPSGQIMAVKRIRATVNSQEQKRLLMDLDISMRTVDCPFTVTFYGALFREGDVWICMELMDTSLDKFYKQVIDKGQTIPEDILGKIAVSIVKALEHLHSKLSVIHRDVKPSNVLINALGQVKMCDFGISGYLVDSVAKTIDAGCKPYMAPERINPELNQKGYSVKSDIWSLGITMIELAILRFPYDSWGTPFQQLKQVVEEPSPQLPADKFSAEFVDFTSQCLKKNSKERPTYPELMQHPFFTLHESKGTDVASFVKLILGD
compound,measurement,setting,value
Cc1cc(-c2ccnc(Nc3cnn(C)c3)n2)ccc1CNC(=O)N1CC(OC(C)C)C1,% of control,[1],46%
CCN(CC)CCCCNc1ncc2cc(-c3cc(OC)cc(OC)c3)c(NC(=O)NC(C)(C)C)nc2n1,% of control,[2],100%
CC[C@@H]1[C@H](F)C(=O)N[C@@H]1COc1nccc2cc(C(N)=O)c(OC)cc12 [ZIMLOVISERTIB],% of inhibition,[3]; at 0.01 µM,-8.6%
same,% of inhibition,[3]; at 0.04 µM,21.7%
same,% of inhibition,[3]; at 0.2 µM,20.8%
same,% of inhibition,[3]; at 1 µM,-6.5%
same,% of inhibition,[3]; at 5 µM,20.6%
COc1cc(Nc2nc(C)cc(-c3cnn4nc(OC)ccc34)n2)cc(C(F)(F)F)c1,% of control,[4],100%
CC(C)(O)[C@H](F)CN1Cc2cc(NC(=O)c3cnn4cccnc34)c(N3CCOCC3)cc2C1=O,dTM,[5],8.7 K
CNCCN1CCC(c2cc(CN(C)C(=O)c3cccc(Oc4ccccc4)c3)ccn2)CC1,% of growth rate,[6],-24.4%
Cc1cc([C@@H](C)Nc2ccccc2C(=O)O)c2nc(N3CCOCC3)cc(=O)n2c1 [AZD-6482],% of control,[7],97%
same,% of control,[8],92%
O[C@H]1CC[C@H](Nc2ncc3nc(Nc4c(F)cc(F)cc4F)n([C@H]4CCOC4)c3n2)CC1,% of control,[9],88%

# Source: ChEMBL document CHEMBL5465560, “Selectivity Literature for EUbOPEN Chemogenomic Library” (2024)
